Experimental data published in patent US20220274983A1, “JAK KINASE INHIBITOR AND USE THEREOF” (JIANGSU CAREPHAR PHARMACEUTICAL CO., LTD., priority 2019, published 2022).

Key:
BaF3 cells = assay: Proliferation inhibition based on BaF3 cells (IL-3 medium, CTG); assay type: cell-based; details: Mus musculus, medium containing IL-3, read-out: IC50 (uM), proliferation inhibitory activity on BaF3 cells
Method: 1. Cell plating: cultured cells were collected with RPMI1640+10% FBS (containing IL-3) medium and counted for viable cells with Vi-Cell XR cell counter. The cell suspension was adjusted to an appropriate concentration with RPMI1640+10% FBS (containing IL-3) medium and then added to a 96-well cell culture plate. A certain amount of cell suspension was added to each well of the 96-well cell culture plate. The cells were cultured in corresponding incubators.
2. Drug treatment: a series of test compound concentration (work solution-1) was prepared using DMSO with 3× gradient dilution, and then it was subjected to fold dilution with RPMI1640+10% FBS (containing IL-3) to obtain a work solution-2; Cisplatin's work solution-2 was prepared with RPMI1640+10% FBS (containing IL-3), and then 1-10 μL solution taken from the work solution-2 was added to the prepared cell wells containing medium. The cells were cultured in the corresponding incubators. An appropriate CTG solution was added to each well.
(§1) Cell Survival Rate Calculation
(§2) T is the luminescence reading of a drug treatment group, and C is the average luminescence reading of a solvent control group.

TYK2 = TYK2 (Homo sapiens, UniProt P29597); assay: JAK kinase inhibitory activity, HTRF biochemical assay
Method: (§3) The compounds of the above embodiments were applied to the detection and screening of JAK kinase inhibitory activity.
(§4) A corresponding volume of DMSO was added to each well of a first 96-well plate. 20-30 μL of 100-200 μM stock solution of different test compounds were added to each well. The mixture was shaken and mixed for 3 min. All of the compounds were subjected to 3× serial dilution. 60-80 μL Kinase buffer was added to each well of a second 96-well plate, and 1-2 μL of the solution taken from each well of the first 96-well plate was added to the corresponding well of the second 96-well plate. The mixture was shaken and mixed for 3 min. 5 μL of compound dilution taken from each well of the second compound dilution plate was transferred to the corresponding well of a 384-well test plate. 1-2 μL TK Substrate-biotin was added to each well of the test plate. 1-2 μL of enzyme mixture was added to each well. At the same time, a blank well without enzyme was set. 1-2 μL of ATP solution was added to each well, the plate was sealed and reacted at room temperature. The reaction time was as follows: JAK1: 2 h, JAK2: 30 min, JAK3: 30 min, and TYK2: 50 min. 3-5 μL of Streptavidin-XL665 and 3-5 μL of TK Antibody-cryptate were added to each well, the plate was sealed and allowed to stand at room temperature for 30 min to complete the reaction.
(§5) The percentage of inhibition was calculated based on the following formula:
(§6) Inhibition %=[(Ratiomax−Ratiocompound)/(Ratiomax−Ratiomin)]×100%
(§7) Ratiocompound is the HTRF ratio at a given compound concentration, Ratiomin is the HTRF ratio added to the blank well, and Ratiomax is the HTRF ratio without adding the compound. GraphPad Prism 5.0 software was used to plot a sigmoid dose-inhibition rate curve with a non-linear regression model and calculate the IC50 value.

JAK1 = JAK1 (Homo sapiens, UniProt P23458); assay: as above
Method: as §3, §4, §5, §6, §7

JAK3 = target: T1, JAK3 (Homo sapiens, UniProt P52333); assay: as above
T1 sequence (P52333 1-1124): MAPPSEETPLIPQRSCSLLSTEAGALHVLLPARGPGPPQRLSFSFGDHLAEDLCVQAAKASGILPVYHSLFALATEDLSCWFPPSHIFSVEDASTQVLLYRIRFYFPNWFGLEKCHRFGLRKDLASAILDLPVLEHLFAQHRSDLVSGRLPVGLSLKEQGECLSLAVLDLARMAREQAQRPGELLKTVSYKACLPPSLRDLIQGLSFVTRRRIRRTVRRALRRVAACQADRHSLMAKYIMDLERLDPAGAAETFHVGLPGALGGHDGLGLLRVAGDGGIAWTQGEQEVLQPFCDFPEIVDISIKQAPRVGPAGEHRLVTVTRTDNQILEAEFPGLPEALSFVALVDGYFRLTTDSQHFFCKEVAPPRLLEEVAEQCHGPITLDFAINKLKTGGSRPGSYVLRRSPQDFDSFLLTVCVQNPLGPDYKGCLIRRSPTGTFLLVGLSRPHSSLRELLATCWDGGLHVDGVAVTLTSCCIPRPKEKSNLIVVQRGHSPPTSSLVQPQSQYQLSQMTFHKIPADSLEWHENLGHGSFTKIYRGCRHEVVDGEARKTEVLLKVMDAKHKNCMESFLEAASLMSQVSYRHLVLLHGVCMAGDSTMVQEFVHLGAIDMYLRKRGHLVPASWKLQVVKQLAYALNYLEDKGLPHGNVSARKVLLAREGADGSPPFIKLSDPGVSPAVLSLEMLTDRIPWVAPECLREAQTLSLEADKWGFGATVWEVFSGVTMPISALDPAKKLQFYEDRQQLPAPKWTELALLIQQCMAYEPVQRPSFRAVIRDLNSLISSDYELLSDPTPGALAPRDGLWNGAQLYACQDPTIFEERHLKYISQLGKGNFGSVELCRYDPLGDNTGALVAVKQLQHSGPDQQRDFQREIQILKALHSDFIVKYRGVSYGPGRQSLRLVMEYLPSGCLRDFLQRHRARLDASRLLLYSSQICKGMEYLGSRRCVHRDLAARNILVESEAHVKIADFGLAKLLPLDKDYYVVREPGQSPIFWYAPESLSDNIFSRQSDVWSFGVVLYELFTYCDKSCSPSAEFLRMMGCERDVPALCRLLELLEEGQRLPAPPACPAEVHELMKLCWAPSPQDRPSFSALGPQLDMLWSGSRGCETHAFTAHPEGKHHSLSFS
Method: as §3, §4, §5, §6, §7

JAK2 = JAK2 (Homo sapiens, UniProt O60674); assay: as above
Method: as §3, §4, §5, §6, §7

Hela cells = assay: Proliferation inhibition based on Hela cells (OSM stimulation, CTG); assay type: cell-based; details: Homo sapiens, OSM stimulation, read-out: IC50 (uM), proliferation inhibitory activity on Hela cells
Method: 1. Cell plating: cultured cells were collected and counted for viable cells with Vi-Cell XR cell counter. The cell suspension was adjusted to an appropriate concentration with the medium and then added to a 96-well cell culture plate. 50 μL-100 μL of the cell suspension was added to each well of the 96-well cell culture plate. The cell plating density depended on the growth rate of the cells. The cells were cultured in corresponding incubators.
2. Drug Treatment and OSM Stimulation
Firstly, a series of test compound concentration (work solution-1) was prepared using DMSO with 3× gradient dilution, and then it was subjected to fold dilution with RPMI1640+10% FBS to obtain a work solution-2; Cisplatin's work solution-2 was prepared with RPMI1640+10% FBS, and then 1-10 μL solution taken from the work solution-2 was added to the prepared cell wells containing medium. After incubation, 1-10 μL of OSM medium was added to each well and continued to culture. An appropriate CTG solution was added to each well. The mixture was shaken and mixed for 1-5 min and then a luminescence signal was determined with an Envision2104 plate reader.
as §1, §2

Sequence of TYK2 (P29597 whole entry, species assumed): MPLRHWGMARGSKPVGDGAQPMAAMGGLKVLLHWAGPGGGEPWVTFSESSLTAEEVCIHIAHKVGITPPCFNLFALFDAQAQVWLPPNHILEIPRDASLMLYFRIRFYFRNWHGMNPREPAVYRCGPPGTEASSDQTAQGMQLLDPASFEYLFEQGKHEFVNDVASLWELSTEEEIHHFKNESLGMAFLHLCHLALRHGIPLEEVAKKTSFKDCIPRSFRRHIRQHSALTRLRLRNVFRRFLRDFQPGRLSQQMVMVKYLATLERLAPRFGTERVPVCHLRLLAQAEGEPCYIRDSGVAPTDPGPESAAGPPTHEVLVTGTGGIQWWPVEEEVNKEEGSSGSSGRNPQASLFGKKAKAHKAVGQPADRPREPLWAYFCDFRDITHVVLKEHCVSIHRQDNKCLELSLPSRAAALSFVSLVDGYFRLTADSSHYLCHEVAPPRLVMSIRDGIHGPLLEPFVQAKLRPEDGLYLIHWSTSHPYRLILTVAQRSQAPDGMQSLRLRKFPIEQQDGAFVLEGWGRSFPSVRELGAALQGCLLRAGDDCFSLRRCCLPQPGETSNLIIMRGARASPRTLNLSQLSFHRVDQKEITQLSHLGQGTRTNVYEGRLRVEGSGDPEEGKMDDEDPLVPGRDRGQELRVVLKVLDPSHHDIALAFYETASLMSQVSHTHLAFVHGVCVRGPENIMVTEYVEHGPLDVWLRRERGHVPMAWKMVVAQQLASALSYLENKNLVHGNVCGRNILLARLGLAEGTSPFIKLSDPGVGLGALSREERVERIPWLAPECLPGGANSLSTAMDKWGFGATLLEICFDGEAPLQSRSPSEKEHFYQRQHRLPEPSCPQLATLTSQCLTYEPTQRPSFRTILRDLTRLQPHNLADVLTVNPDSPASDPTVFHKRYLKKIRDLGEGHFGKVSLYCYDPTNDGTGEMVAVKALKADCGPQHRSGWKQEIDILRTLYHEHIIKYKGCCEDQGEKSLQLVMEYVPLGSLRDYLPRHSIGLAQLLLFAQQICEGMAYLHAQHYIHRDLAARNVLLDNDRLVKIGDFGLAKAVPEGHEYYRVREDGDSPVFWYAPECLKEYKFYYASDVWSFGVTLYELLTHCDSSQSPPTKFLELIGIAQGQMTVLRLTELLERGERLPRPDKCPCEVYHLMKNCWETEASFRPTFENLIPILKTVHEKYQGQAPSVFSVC
Sequence of JAK1 (P23458 whole entry, species assumed): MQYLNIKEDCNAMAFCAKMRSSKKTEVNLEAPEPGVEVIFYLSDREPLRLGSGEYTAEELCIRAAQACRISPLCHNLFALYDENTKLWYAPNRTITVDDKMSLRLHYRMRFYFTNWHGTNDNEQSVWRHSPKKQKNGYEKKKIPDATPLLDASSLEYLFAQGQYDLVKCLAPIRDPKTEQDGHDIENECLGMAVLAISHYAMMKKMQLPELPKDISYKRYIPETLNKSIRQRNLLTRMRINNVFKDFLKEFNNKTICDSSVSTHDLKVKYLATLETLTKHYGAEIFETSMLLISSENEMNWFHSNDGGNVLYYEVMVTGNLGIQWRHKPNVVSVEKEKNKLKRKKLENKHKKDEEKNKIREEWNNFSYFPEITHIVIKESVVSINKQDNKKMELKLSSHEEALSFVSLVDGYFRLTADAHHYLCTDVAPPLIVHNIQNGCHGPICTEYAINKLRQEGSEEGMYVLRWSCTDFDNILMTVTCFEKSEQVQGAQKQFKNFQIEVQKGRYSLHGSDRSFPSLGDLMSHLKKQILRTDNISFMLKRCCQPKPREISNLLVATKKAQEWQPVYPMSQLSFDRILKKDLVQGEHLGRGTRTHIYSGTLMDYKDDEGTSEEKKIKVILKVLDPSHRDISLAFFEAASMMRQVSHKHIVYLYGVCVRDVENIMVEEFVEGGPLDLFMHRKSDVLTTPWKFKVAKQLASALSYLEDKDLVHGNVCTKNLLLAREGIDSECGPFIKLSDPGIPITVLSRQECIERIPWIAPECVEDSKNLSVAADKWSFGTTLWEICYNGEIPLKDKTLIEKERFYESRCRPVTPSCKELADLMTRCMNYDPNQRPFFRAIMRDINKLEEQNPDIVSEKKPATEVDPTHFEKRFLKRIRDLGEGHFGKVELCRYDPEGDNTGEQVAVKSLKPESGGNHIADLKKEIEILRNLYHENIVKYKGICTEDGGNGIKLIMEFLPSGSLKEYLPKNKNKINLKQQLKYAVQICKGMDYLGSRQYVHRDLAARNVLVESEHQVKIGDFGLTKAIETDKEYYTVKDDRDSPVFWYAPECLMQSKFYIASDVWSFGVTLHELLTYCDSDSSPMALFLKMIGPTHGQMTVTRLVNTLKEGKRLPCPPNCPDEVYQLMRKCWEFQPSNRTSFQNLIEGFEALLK
Sequence of JAK2 (O60674 whole entry, species assumed): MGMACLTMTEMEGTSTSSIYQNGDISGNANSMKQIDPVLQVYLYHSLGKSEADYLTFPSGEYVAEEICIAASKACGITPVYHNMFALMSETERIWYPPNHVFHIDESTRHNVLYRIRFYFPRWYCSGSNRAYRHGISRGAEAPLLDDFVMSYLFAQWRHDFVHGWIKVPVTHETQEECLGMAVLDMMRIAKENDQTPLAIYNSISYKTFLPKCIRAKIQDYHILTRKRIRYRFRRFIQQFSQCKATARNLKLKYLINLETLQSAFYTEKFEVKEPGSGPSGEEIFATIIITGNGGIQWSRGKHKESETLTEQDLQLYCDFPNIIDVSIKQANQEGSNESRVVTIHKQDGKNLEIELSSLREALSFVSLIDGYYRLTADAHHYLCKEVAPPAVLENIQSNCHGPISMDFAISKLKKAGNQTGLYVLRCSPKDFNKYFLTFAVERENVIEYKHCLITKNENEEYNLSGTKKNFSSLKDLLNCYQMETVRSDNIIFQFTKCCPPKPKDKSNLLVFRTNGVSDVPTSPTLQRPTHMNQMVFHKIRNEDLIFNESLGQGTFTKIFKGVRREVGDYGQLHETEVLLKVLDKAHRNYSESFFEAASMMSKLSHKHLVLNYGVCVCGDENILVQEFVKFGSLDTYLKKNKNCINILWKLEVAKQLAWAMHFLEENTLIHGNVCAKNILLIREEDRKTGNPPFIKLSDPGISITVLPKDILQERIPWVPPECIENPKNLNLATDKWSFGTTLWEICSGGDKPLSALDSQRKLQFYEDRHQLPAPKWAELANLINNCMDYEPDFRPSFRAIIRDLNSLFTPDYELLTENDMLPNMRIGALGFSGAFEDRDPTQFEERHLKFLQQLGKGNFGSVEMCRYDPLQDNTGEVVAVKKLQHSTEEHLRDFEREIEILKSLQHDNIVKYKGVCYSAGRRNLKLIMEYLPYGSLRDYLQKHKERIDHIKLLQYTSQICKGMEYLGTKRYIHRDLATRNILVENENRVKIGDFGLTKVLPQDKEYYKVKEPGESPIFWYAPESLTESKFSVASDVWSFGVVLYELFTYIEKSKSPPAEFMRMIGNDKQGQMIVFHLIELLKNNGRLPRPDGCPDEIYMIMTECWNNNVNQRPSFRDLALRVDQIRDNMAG

SMILES	IC50 (BaF3 cells)	IC50 (TYK2)	IC50 (JAK1)	IC50 (JAK3)	IC50 (JAK2)	IC50 (Hela cells)
O=C(Nc1nc2cccc(-c3ccc(CN4CCS(=O)(=O)CC4)s3)n2n1)C1CC1 [EXP-1]	< 5 µM	> 500 nM	30 to 50 nM	50 to 500 nM	30 to 50 nM	< 5 µM
O=C(Nc1cn2c(-c3ccc(CN4CCS(=O)(=O)CC4)s3)cccc2n1)[C@H]1C[C@@H]1F (relative stereo) [EXP-3, trans-N-[5-[5-[(1,1-dioxo-1,4-thiazin-4-yl)methyl]-2-thiophene]imidazo[1,2-a]pyridin-2-yl]-2-fluoro-cyclopropylcarboxamide]	< 5 µM	> 500 nM	10 to 30 nM	> 500 nM	30 to 50 nM	< 5 µM
